Experiments:
Type in all cases: cell-based, human
[1] = tested on: MCP-1 gene expression in HMVECs; test: cDNA microarray analysis of gene expression in stimulated HMVECs; conditions: four hours; for MCP-1 gene expression in response to stimulus (microarray): thrombin 100 nM or TNF-α 20 ng/ml
Method: In an effort to rapidly assess the potential overall role of SK1 in endothelial cell function, a cDNA microarray analyses was performed in HMVEC in the absence and presence of the SK1 inhibitor DMS. The cells were stimulated through two receptor subtypes: G-protein coupled receptors, for which the Protease Activate Receptor (PAR) family was utilized with thrombin as the agonist and cytokine receptors with TNF-α as the agonist
Cell Culture—Adult human microvascular endothelial cells (HMVECs) (Cambrex) were cultured in EGM complete media (Cambrex). Cells were used between the third and sixth passages for all studies.
Microarray Study—Adult human microvascular endothelial cells (HMVECs) (Cambrex) were placed into culture (5% FBS) and stimulated with thrombin (100 nM) or TNF-α (20 ng/ml) in the absence or presence of DMS (10 μM), a potent inhibitor of sphingosine kinase. After four hours of stimulation, RNA was isolated (Tri-Reagent, Bio-Mol), DNAse treated and cleaned using the RNeasy maxi kit (Qiagen). Upon validation of RNA purity using the Agilent 2100 Bioanalyzer, RNA was then subjected to cDNA microarray analyses.
A cDNA microarray containing 3563 cDNA clones was used in this study. In the gene expression studies two types of replications were used, biological and technical. Duplicate biological samples were harvested for each experimental condition for the initial microarray analyses. Additionally technical replication was employed as all samples were run in triplicate on separate microarrays. The microarray data from each sample were subjected to outlier removal based on technical replication and normalization based on both the technical and biological replication. The normalization consisted of an initial normalization between hybridization replicates within a single sample, followed by a secondary normalization across all samples within the study (Shaw et al., J Mol Microbiol Biotechnol, 2003, 5:105-122). […] After cleanup and subsequent normalizations, a single ratio was calculated for each treatment to its assigned control. […]

[2] = tested on: MCP-1 transcripts in HMVECs; test: Quantitative RT-PCR of MCP-1 transcripts in stimulated HMVECs; conditions: thrombin 100 nM
Description: In the presence of hSK1-specific siRNAs, induction of MCP-1 was inhibited whereas in the presence of hSK2-specific or control non-silencing siRNAs, MCP-1 induction was not affected.
Evaluation of siRNA Transfection Efficiency and Silencing Capabilities—Small interfering RNAs (siRNAs) were designed and synthesized to target either sequences for hSK1, SEQ ID NO: 1 ([…]) or hSK2, SEQ ID NO:2 ([…]) transcripts as well as control non-silencing siRNA, SEQ ID NO:3 ([…]), which has no sequence target in the human genome (Qiagen). The oligonucleotides were fluorescein-conjugated on the 3′ end of the sense strand, which facilitated visualization of transfection efficiency by fluorescence confocal microscopy (LSM 510, Zeiss). […] For experimental studies RNA were isolated, DNAse treated and subjected to quantitative RT-PCR analyses to detect transcript levels of hSK1, hSK2, MCP-1 and control 18S transcripts using predesigned primers from Applied Biosystems. […]
Quantitative RT-PCR—HMVECs were placed into culture overnight and stimulated with thrombin (100 nM) after which RNA was isolated and DNAse treated. TaqMan® quantitative RT-PCRs were performed in triplicate as validation of microarray analyses according to manufacturers instructions (Applied Biosystems). The quantity mean for each detector was normalized to that of the 18S detector.

[3] = tested on: MCP-1 protein secretion from HMVECs; test: MCP-1 ELISA of HMVEC supernatant; conditions: 24 hours; for MCP-1 protein secretion in response to stimulus (ELISA): thrombin 100 nM or varying concentrations of PAR-activating peptides; for effect of inhibitor pretreatment on induced MCP-1 protein secretion: DMS 10 μM, Bay11-7092 10 μM, GF109203x 1 μM, PD98059 10 μM, stimulation with Thrombin 100 nM, PAR-1-AP 100 nM or (Thrombin 0.1 ng/ml)
Method: HMVECs were placed into culture and stimulated with Thrombin (100 nM) or varying concentrations of PAR-activating peptides. 24 hours later, we used ELISA to detect secretion of MCP-1 into supernatant.
MCP-1 ELISA—HMVECs were placed into culture in 96-well dishes (2×10^3 cells/well) and grown for 24 hours in complete growth media. Cells were transfected with control non-silencing siRNA or siRNAs for hSK1 or hSK2 in serum-free Opti-MEM (Gibco) for 4 hours. Cells were then allowed to grow for 24 hours in media containing 10% FBS, after which the cells were serum starved in 0.5% FBS media overnight. Cells were subsequently stimulated with fresh 0.5% FBS containing media and incubated under various experimental conditions for an additional 24 hours. Where indicated, cells were pre-incubated with specific compound inhibitors, for 20 minutes, prior to stimulation. Supernatants were collected and analyzed by ELISA (Cell Sciences).
HMVECs were transfected with siRNAs (1.6 μg), hSK1-specific, hSK2-specific or control non-silencing siRNAs. After 48 hours, cells were stimulated with Thrombin (100 nM), PAR-1-AP (300 μM) or PAR-4-AP (600 μM). ELISA was performed to detect MCP-1 secretion into cell supernatant. […] Furthermore, basal levels of MCP-1 protein secretion appeared to be effected as well, as the level of MCP-1 protein secretion in cells that were unstimulated or stimulated with PAR-4-AP was decreased from cells transfected with hSK1 specific siRNA.
HMVECs were placed into culture overnight, and pretreated with inhibitors to hSK (DMS 10 μM), NF-κB (Bay11-7092 10 μM), PKC (GF109203x 1 μM), or Erk (PD98059 10 μM) prior to stimulation with Thrombin (100 nM), PAR-1-AP (TFLLRN 100 nM), or (Thrombin 0.1 ng/ml). ELISAs were performed 24 hours after stimulation to measure the amount of MCP-1 secretion. […] Furthermore we observed that NF-κB activity is a prerequisite for MCP-1 expression as well, as pretreatment with the NF-κB inhibitor, Bay11-7092, abrogated the induction of MCP-1 protein secretion by all agonists.
HMVECs were placed into culture overnight, and pretreated with inhibitors to hSK (DMS 10 μM), NF-κB (Bay11-7092 10 μM), PKC (GF109203×1 μM), or Erk (PD98059 10 μM) prior to stimulation with 5 μM S1P. ELISAs were performed to detect the levels of secreted MCP-1 protein. […] There was no elevation of MCP-1 protein by the external addition of S1P. Therefore, we rule out a role for S1P receptors in the hSK-dependent release of MCP-1 from HMVECs.

In the case of thrombin, the “MCP-1 gene expression in response to stimulus (microarray)” value [1] is reported as “induced”, the “MCP-1 transcripts in response to stimulus (quantitative RT-PCR)” value [2] is reported as “induction of MCP-1 transcripts” and the “MCP-1 protein secretion in response to stimulus (ELISA)” value ([3]; HMVECs) is reported as “augmented”.
In the case of `COc1cccc(-c2cc(=O)c3ccccc3o2)c1N` [PD98059], the “effect of inhibitor pretreatment on induced MCP-1 protein secretion” value (shortened to “effect of inhibitor pretreatment”) ([3]; HMVECs) is reported as “no effect”.
For TNF-α, the “MCP-1 gene expression in response to stimulus (microarray)” value [1] was “induced”.
In the case of `CN(C)CCCn1cc(C2=C(c3c[nH]c4ccccc34)C(=O)NC2=O)c2ccccc21` [GF109203x], the “effect of inhibitor pretreatment” value ([3]; HMVECs) is reported as “intermediate effect”.
In the case of TFLLRN [PAR-1-AP], the “MCP-1 protein secretion in response to stimulus (ELISA)” value ([3]; HMVECs) is reported as “stimulated secretion of MCP-1”.
`CCCCCCCCCCCCC/C=C/[C@@H](O)[C@@H](N)COP(=O)(O)O` [S1P, Sphingosine-1-phosphate] was tested, and the “MCP-1 protein secretion after external addition of S1P” value ([3]; HMVECs, 5 μM S1P) was “no elevation”.
In the case of `CCCCCCCCCCCCC/C=C/[C@@H](O)[C@H](CO)N(C)C` [DMS, dimethylsphingosine], the “effect on thrombin- and TNF-α-induced MCP-1 gene expression (microarray)” value ([1]; DMS 10 μM added prior to stimulation with thrombin 100 nM or TNF-α 20 ng/ml) is reported as “inhibited”, the “effect on thrombin- or PAR-1 agonist peptide-stimulated secretion of MCP-1 protein” value ([3]; HMVECs pretreated with DMS prior to stimulation) is reported as “inhibited secretion of MCP-1 protein” and the “effect of inhibitor pretreatment” value ([3]; HMVECs) is reported as “hSK activity is required”.
